Laboratory results reported in publication PMC7413254 (Nature Communications, 2020).
Where “and” joins values, the source holds several entries; their conditions need not be identical. Identical values can stand only once.

Tests used:
non-expressing oocytes [1] = test: cells; format: cell-based, Xenopus laevis
From the text: The orientation of PfCRT in the parasite’s DV membrane, and also in the oocyte plasma membrane, is such that its N- and C-termini extend into the cytosol. The oocytes were suspended in a reaction buffer adjusted to pH 5.5 to mimic the pH of the DV lumen[1],[2]. In this scenario, the transport of a substrate via PfCRT from the acidic extracellular solution into the oocyte cytosol[15] is analogous to the parasite’s PfCRT-mediated efflux of a substrate from the acidic DV and into the cytosol. Unless specified otherwise, this is the direction in which substrate transport was measured in the oocyte assays.
(§1) Unless specified otherwise, the transport assays were conducted over 1.5 h at 27.5 °C and the reaction buffer was ND96 (96 mM NaCl, 2 mM KCl, 1 mM MgCl2, 1.8 mM CaCl2, 10 mM MES and 10 mM Tris-base) at pH 5.5.
Ten oocytes were washed twice with the relevant ND96 buffer. […] The assay was terminated by removing the reaction buffer and washing the oocytes with ice-cold ND96 buffer. The oocytes were lysed in 10% (w/v) sodium dodecyl sulfate (SDS) and the radioactivity accumulated within each oocyte was measured with a MicroBeta^2 microplate liquid scintillation analyser (PerkinElmer).
(§2) At least four independent experiments were performed (on different days and using oocytes from different frogs), and within each experiment measurements were made from ten oocytes per treatment.

non-expressing oocytes [2] = format: cell-based, Xenopus laevis
Description: as §1
The intracellular concentrations were calculated using previous estimates of the volume of stage V–VI oocytes (~400 nL[60]). […] The oocytes were injected with VF-6 suspended in 25 nL ND96 buffer adjusted to pH 5.0, 5.5, 6.0 or 7.0, which corresponded to the injection of 2.5–250 fmol of H^+. The Na^+-dependence of the trans-stimulatory effect of VF-6 was assessed by injecting the oocytes with VF-6 suspended in ND96 buffer (pH 5.5) or a Na^+-free version of this buffer (the Na^+ was replaced with choline).
as §2

SMILES | Cis-inhibition data: total [3H]CQ transport, normalised to the oocyte type control (non-expressing oocytes [1]) | Trans-stimulation data: total [3H]CQ transport, normalised to the oocyte type control (non-expressing oocytes [2])
C[N+](C)(C)CCO [Choline] | 100 ± 5.4 and 99 ± 4.3 and 98 ± 3.6 | 99 ± 2.8 and 100 ± 2.6
NCCCNCCCCNCCCN [Spermine] | 99 ± 3.7 and 99 ± 4.1 and 100 ± 4.8 | 99 ± 3.8 and 98 ± 2.9
